Laboratory results as given in patent publication US20080255121A1, “Combination Drug for Treating Autoimmune Disease” (DAINIPPON SUMITOMO PHARMA CO., LTD., priority 2004, published 2008).

How the values were obtained:
[1] = target: T1, CaMKIIα derived from rat (Rattus norvegicus, UniProt P11275); assay: Examination of CaMKII inhibitory activity (1), phosphorylation of Autocamtide-2; assay type: biochemical
T1 construct: purchased Santa Cruz, Inc
Protocol: Test substances were dissolved in DMSO and diluted to various concentrations with a buffer solution (50 mM Tris-HCl: pH 7.5, 10 mM MgCl2, 1 mM Dithiothreitol (DTT)) (all of them are available from Nacalai Tesque, Inc.) for CaMKII reaction. CaMKIIα (final concentration 0.75 μg/ml) (Santa Cruz, Inc.) derived from rat was mixed with Autocamtide-2® (40 μM) (CALBIOCHEM Company) dissolved in CaMKII reaction buffer solution in the presence of the test substance and with CaMKII activation buffer solution (1 mMCaCl2, 1 μM calmodulin) (Nacalai Tesque, Inc.) and the reaction was started by further adding ATP (50 μM) (Nacalai Tesque, Inc.). The reaction was performed at 30° C. for five minutes and then SDS-PAGE sample buffer solution was added and the reaction was terminated by boiling for five minutes. Proteins in the reaction mixture were separated by 15% SDS-PAGE and blotted onto a PVDF membrane. Phosphorus taken in by Autocamtide-2 was reacted with an anti-phosphorylated serine/threonine antibody (Santa Cruz, Inc.) and quantified by ECL system (Amersham, Inc.) and NIH Image (downloadable from http://rsb.info.nih.gov/nih-image/).

[2] = test system: J774A.1 cells; assay: IL-6 production when macrophages were stimulated with LPS; assay type: cell-based, mouse; details: Compound (I) 1 to 30 μM, KN-93 1 to 3 μM; 24 hours; FIG. 2
Protocol: Effects of Compound (I) and KN-93 on IL-6 production when macrophages were stimulated with lipopolysaccharide (LPS) were evaluated.
J774A.1 cells (mouse macrophage cell line) were cultured in Dulbecco's Modified Eagle Medium (DMEM: GIBCO, Inc.) containing 10% fetal bovine serum and subjected to the experiment. The cells were disseminated in 96-well plate in a ratio of 5×10^4 cells/well and a DMEM medium containing the test substance and a DMEM medium containing LPS as a stimulant were added and incubated for 24 hours. The concentration was adjusted so that the final concentrations of the test substances and stimulants were 1 to 30 μM for Compound (I), 1 to 3 μM for KN-93 and 1 μg/ml for LPS. The plate was centrifuged after incubation and the supernatant was collected with micropipette. The concentration of IL-6 in the supernatant was quantified by Enzyme-linked Immunosorbent Assay (ELISA) method. The quantitative method was carried out in accordance with the instructions attached to the kit (MOUSE IL-6 Immunoassay, R & D Systems).

[3] = test system: L929 cells; assay: Proliferation of fibroblasts stimulated with bFGF (Brd-U uptake); assay type: cell-based, mouse; details: Compound (I) 0.3 to 10 μM, KN-93 1 to 30 μM; FIG. 3
Protocol: Effects of Compound (I) and KN-93 on the proliferation of fibroblasts when the fibroblasts were stimulated with basic fibroblast growth factor (bFGF) were evaluated.
L929 cells (mouse fibroblast cell line) were cultured in MEM-Earl medium (E-MEM: GIBCO, Inc.) containing 10% fetal bovine serum and subjected to the experiment. The cells were suspended in a serum-free E-MEM and disseminated in 96-well plate in a ratio of 2×10^4 cells/well and incubated for 72 hours. An E-MEM medium containing the test substance was added and incubated for 1 hour, and an E-MEM medium containing recombinant human FGF basic (bFGF) as a stimulant was added and incubated for 20 hours. 5-Bromo2′-deoxyuridine (Brd-U) solution was added to each well and incubated at 37° C. for further four hours. The cells were fixed and uptake of Brd-U was detected by Cell proliferation ELISA system (Amersham) and absorbance at 450 nm was measured with a microplate reader. This value of absorbance was used as an index of cell proliferation.

[4] = test system: IκBα; assay: Degradation of IκBα in stimulated T-lymphocytes (Western blotting); assay type: cell-based, mouse; details: Compound (I) 30 μM, KN-93 10 μM; EL-4 cells; FIG. 17
Protocol: Effects of Compound (I) and KN-93 on the degradation of IκBα when T-lymphocytes were stimulated with Phorbol 12-myristate 13-acetate (PMA) and Calcium Ionophore A23187 were evaluated.
EL-4 cells (mouse T-lymphocyte cell line) were cultured in Dulbecco's Modified Eagle Medium (DMEM: GIBCO, Inc.) containing 10% fetal bovine serum and subjected to the experiments. Cells subconfluently multiplied were collected by centrifugation and dispensed into Eppendorf tubes to be contained at 5×10^6 cells/tube. After Compound (I) (final 30 μM) or KN-93 (final 10 μM) was added and preincubated at 37° C. in a water bath, stimulation by PMA (final 125 ng/ml) and A23187 (final 1 μg/ml) was performed (total volume 500 μl). After incubated for 15 minutes or 30 minutes after the stimulation, 1 ml of an ice cold stop solution (1×PBS, 1 mM Na3VO4, 5 mM EDTA) was added to terminate the reaction. After centrifugation and rinsing, it was dissolved in TNE buffer (50 mMTris-HCl, 1% NP-40, 20 mM EDTA, 100 μg/ml PMSF, 30 μl/ml Aprotinin, 1 mM Na3VO4, 5 mM NaF, 12 mM β-glycerophosphate). After performing 12% SDS-PAGE, proteins were transferred onto a PVDF membrane and western blotting was performed with anti-IκBα antibody (C-21, Santa Cruz, Inc.).

[5] = test system: cyclin D1; assay: Expression of cyclin D1 in bFGF stimulated fibroblasts (Western blotting); assay type: cell-based, mouse; details: Compound (I) 1.25 to 20 μM, KN-93 5 to 20 μM; L929 cells; FIG. 18
Protocol: (§1) Effects of Compound (I) and KN-93 on effect on the expression of cyclin D1 and the phosphorylation of Akt when fibroblasts were stimulated with basic fibroblast growth factor (bFGF) were evaluated.
(§2) L929 cells (mouse fibroblast cell line) were cultured in MEM-Earl medium (E-MEM: GIBCO, Inc.) containing 10% fetal bovine serum and subjected to the experiment. The cells were suspended in a serum-free E-MEM and cultured for 72 hours. An E-MEM medium containing the test substance was added and incubated for 1 hour, and an E-MEM medium containing recombinant human FGF basic (bFGF) as a stimulant was added and further incubated. The cells were lysed in a RIPA buffer and a total cell lysate was obtained. After performing SDS-PAGE, proteins were transferred onto a PVDF membrane and western blotting was performed with anti-cyclin antibody or anti-Akt antibody (both available from Santa Cruz, Inc.).

[6] = test system: Akt; assay: Phosphorylation of Akt in bFGF stimulated fibroblasts (Western blotting); assay type: cell-based, mouse; details: Compound (I) 20 μM, KN-93 20 μM; L929 cells; FIG. 19
Protocol: as §1, §2

T1 sequence (P11275 whole entry): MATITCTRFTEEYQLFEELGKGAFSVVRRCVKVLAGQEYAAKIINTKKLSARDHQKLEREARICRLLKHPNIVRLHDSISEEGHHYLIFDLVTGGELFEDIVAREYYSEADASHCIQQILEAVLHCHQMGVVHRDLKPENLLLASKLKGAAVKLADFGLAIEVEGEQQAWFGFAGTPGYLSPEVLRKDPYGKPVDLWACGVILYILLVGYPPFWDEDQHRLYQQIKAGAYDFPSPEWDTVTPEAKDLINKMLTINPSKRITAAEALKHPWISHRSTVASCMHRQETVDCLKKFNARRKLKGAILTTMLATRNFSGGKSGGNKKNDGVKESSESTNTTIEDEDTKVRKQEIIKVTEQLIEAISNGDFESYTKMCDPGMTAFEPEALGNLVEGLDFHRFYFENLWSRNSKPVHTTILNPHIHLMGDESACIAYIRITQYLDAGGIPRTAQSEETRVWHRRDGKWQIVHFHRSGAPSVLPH

SMILES | Inhibition rate (%) ([1]; Concentration 0.1 μm) | Inhibition rate (%) ([1]; Concentration 1 μm) | Inhibition rate (%) ([1]; Concentration 10 μm) | production of IL-6 [2] | proliferation of fibroblasts [3] | degradation of IκBα [4] | enhanced expression of cyclin D1 [5] | phosphorylation of Akt [6]
C[C@@H](c1ccc(-c2ccccc2)c(F)c1)c1cc(/N=C(/N)N2CCOCC2)on1 [Compound (I), 3-[(1S)-1-(2-fluorobiphenyl-4-yl)ethyl]-5-{[amino(morpholin-4-yl)methylene]amino}isoxazole] | 39 | 47 | 85 | suppressed production of IL-6 dose-dependently | dose-dependently suppressed the proliferation of fibroblasts | suppressed the degradation of IκBα | suppressed the enhanced expression of cyclin D1 | suppressed the phosphorylation of Akt
COc1ccc(S(=O)(=O)N(CCO)c2ccccc2CN(C)C/C=C/c2ccc(Cl)cc2)cc1 [KN-93, N-(2-[N-[4-chlorocinnamyl]-N-methylaminomethyl]phenyl)-N-(2-hydroxyethyl)-4-methoxybenzenesulfonamide, reference compound] | 25 | 58 | 77 | suppressed production of IL-6 dose-dependently | dose-dependently suppressed the proliferation of fibroblasts | suppressed the degradation of IκBα | suppressed the enhanced expression of cyclin D1 | suppressed the phosphorylation of Akt
